{
  "source": "the supplement of paper PMC10307832",
  "key": {"XMD8-85 + OSI-027": {"compound": "CN1CCN(CC1)C2=CC(=C(C=C2)NC3=NC=C4C(=N3)N(C5=CC=CC=C5C(=O)N4C)C)OC [XMD8-85] + COc1cccc2cc(-c3nc([C@H]4CC[C@H](C(=O)O)CC4)n4ncnc(N)c34)[nH]c12 [OSI-027] (partner 0.5 µM)", "test": "relative viability (nuclei count vs DMSO), 5 days (fraction); higher = more cells survive", "summary_of_the_method": "(§1)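 Lung cancer cell lines were pin-tool dosed in 1536-well plates on the day after seeding, with either a lone drug or a fixed anchor-drug dose plus five library-drug doses (not always all listed) in √10 steps. Nuclei were counted on 4× images after 5 days. Relative viability is the ratio of treated-well to vehicle-well nuclei counts, with each value a median of duplicate plates.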"}, "4EGI-1 + Trametinib": {"compound": "O=C(O)C(Cc1ccccc1[N+](=O)[O-])=NNc1nc(-c2ccc(Cl)c(Cl)c2)cs1 (mixture of isomers) [4EGI-1] + CC(=O)Nc1cccc(-n2c(=O)n(C3CC3)c(=O)c3c(Nc4ccc(I)cc4F)n(C)c(=O)c(C)c32)c1 [Trametinib] (partner 0.02 µM)", "test": "relative viability (nuclei count vs DMSO), 5 days (fraction); higher = more cells survive", "summary_of_the_method": "as §1"}},
  "data": [
    {"cell line": "NCI-H1792", "values": [
      {"measurement": "relative viability", "setting": "XMD8-85 + OSI-027; first compound 0.253 µM", "value": 0.856},
      {"measurement": "relative viability", "setting": "XMD8-85 + OSI-027; first compound 2.53 µM", "value": 0.981},
      {"measurement": "relative viability", "setting": "XMD8-85 + OSI-027; first compound 8 µM", "value": 0.896},
      {"measurement": "relative viability", "setting": "4EGI-1 + Trametinib; first compound 0.5 µM", "value": 0.524},
      {"measurement": "relative viability", "setting": "4EGI-1 + Trametinib; first compound 1.581 µM", "value": 0.428},
      {"measurement": "relative viability", "setting": "4EGI-1 + Trametinib; first compound 5 µM", "value": 0.359},
      {"measurement": "relative viability", "setting": "4EGI-1 + Trametinib; first compound 15.81 µM", "value": 0.479},
      {"measurement": "relative viability", "setting": "4EGI-1 + Trametinib; first compound 50 µM", "value": 0.366}
    ]}
  ]
}
